Laboratory results as given in patent US10072262B2, “RIG-I ligands and methods for producing them” (RHEINISCHE FRIEDRICH-WILHELMS-UNIVERSITÄT BONN, priority 2012, dated 2018).

Molecular target: T1, RIG-I (Homo sapiens, UniProt O95786)
T1 construct: endogenous in cells
T1 sequence (O95786 1-925): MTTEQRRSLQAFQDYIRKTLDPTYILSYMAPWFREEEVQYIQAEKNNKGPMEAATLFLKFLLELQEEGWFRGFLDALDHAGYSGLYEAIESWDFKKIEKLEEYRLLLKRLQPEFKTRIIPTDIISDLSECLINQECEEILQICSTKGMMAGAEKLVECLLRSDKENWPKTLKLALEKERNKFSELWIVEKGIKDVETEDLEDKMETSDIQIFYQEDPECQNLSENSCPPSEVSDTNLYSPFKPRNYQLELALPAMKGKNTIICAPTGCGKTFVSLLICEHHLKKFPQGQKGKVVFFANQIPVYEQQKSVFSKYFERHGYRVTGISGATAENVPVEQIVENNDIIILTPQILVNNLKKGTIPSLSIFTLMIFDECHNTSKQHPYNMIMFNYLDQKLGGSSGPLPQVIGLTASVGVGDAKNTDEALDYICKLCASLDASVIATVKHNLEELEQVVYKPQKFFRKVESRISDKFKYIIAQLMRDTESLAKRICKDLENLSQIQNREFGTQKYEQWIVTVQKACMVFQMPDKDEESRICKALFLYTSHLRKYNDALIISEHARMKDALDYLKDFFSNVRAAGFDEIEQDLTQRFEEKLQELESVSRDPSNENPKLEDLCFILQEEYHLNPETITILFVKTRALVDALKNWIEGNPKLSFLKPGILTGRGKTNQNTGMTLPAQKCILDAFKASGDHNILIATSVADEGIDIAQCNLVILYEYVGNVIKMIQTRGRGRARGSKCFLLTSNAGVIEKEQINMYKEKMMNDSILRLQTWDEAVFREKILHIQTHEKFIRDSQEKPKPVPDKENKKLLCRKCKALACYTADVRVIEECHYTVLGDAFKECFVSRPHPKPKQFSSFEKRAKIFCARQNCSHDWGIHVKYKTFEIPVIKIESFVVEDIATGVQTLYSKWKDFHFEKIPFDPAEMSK
Assay: RIG-I stimulation: chloroquine-blocked PBMCs, duplex lipofection, IFNa ELISA at 20 h
Type: cell-based
Settings: FIG. 7B titration
Experimental: A screen of 2′-O-methylations resolved positions to introduce RIG-I selectivity (FIG. 5). For the sense (A) and antisense (B) strand of OH-GFP2 a full 2′-O-methylation screen was performed. Each position was modified individually by 2′-O-methylation and used for stimulation of RIG-I, TLR7 or TLR8. For stimulation of RIG-I, peripheral blood mononuclear cells (PBMCs) were blocked with Chloroquine and stimulated by lipofection of the duplex. IFNa was measured 20 h post stimulation by ELISA. For TLR7 and TLR8 only the relevant single-strand was screened for stimulatory capacity and checked on unblocked PBMCs. The single-strands were transfected by complexation with poly-L-Arginine and 20 h post transfection for TLR7 activation IFNa, for TLR8 activation IL12p70 was measured by ELISA. […]
FIG. 6: (A) Methylations inert for RIG-I activation were combined in the antisense strand and the resulting duplex was used for stimulation of chloroquine-blocked PBMCs at a concentration of 0.8 μg/ml. IFNa was measured by ELISA at 20 h post stimulation. […]
FIG. 7: (A) PBMCs were blocked with Chloroquine and stimulated with duplexes at a concentration of 0.8 μg/ml. 20 h post stimulation IFNa was measured by ELISA. […] 20 h post stimulation IFNa was determined in the supernatant by ELISA. […]

Substance | IFNa corresponding to 100% (50 nM, chloroquine-blocked PBMCs, Lipofectamine, 20 h, 4 donors) | duplex immune activity (effect of 5′-PTO modification), in words (compared with s15/as3)
3P-GFP2: ppp-GACGCUGACCCUGAAGUUCAUCUU / CUGCGACUGGGACUUCAAGUAGAA; unmodified triphosphate duplex (5'-triphosphate, chemistry not fully specified; one strand is listed 3' to 5') | 16044 pg/mL | –
s15 PTO/as3 PTO: G*A*C GCUGACCCUGAAmGUUCAUC U U / C U GmCGACUGGGACUU CAAGUAG*A*A; * = PTO, Nm = 2′-OCH3 (sense GACGCUGACCCUGAAGUUCAUCUU; antisense CUGCGACUGGGACUUCAAGUAGAA; phosphorothioate and 2'-O-methyl modifications, chemistry not fully specified; one strand is listed 3' to 5') | – | maximum increase in activity
